Reference: patent US4740233A, “Substituted 1,2,4-triazolo[1,5-a]-pyrimidine-2-sulfonamides and compositions and methods of controlling undesired vegetation and suppressing the nitrification of ammonium nitrogen in soil” (The Dow Chemical Company, priority 1986, dated 1988)

Columns and labels:
rice = test: Control of aquatic plant species (paddy water); type: in vivo, Oryza sativa; settings: Oryza sativa, 216 h, nine days, read-out: Percent control; for pest or weed control at 31 g/ha: 0.031 Kg/Ha; for pest or weed control at 250 g/ha: 0.25 Kg/Ha; for pest or weed control at 500 g/ha: 0.5 Kg/Ha
Description: (§1) In testing for such utility, the plant species to be tested were transplanted into 16 oz. containers into about 2 inches of soil when they were in the 1-2 inch stage and then flooded to a depth of about 1 inch. An acetone concentrate of the chemical to be tested was then injected into the paddy water, the volume injected being varied as desired to provide the desired concentration. Percent control was evaluated nine days after application.

barnyardgrass = test: Control of aquatic plant species (paddy water); type: in vivo, Echinochloa crusgalli; settings: Echinochloa crus-galli, 216 h, nine days, read-out: Percent control; for pest or weed control at 31 g/ha: 0.031 Kg/Ha; for pest or weed control at 250 g/ha: 0.25 Kg/Ha; for pest or weed control at 500 g/ha: 0.5 Kg/Ha
Description: as §1

sprangletop = test: Control of aquatic plant species (paddy water); type: in vivo, Leptochloa filiformis; settings: Leptochloa filiformis, 216 h, nine days, read-out: Percent control; for pest or weed control at 31 g/ha: 0.031 Kg/Ha; for pest or weed control at 250 g/ha: 0.25 Kg/Ha; for pest or weed control at 500 g/ha: 0.5 Kg/Ha
Description: as §1

yellow nutsedge = test: Control of aquatic plant species (paddy water); type: in vivo, Cyperus esculentus; settings: Cyperus, 216 h, nine days, read-out: Percent control; for pest or weed control at 31 g/ha: 0.031 Kg/Ha; for pest or weed control at 250 g/ha: 0.25 Kg/Ha; for pest or weed control at 500 g/ha: 0.5 Kg/Ha
Description: as §1

[1] = test system: nitrification of ammonium nitrogen; test: Suppression of nitrification of ammonium nitrogen in soil; settings: 27° C.
Method in brief: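 Value is % NH4-N remaining after a two-week, 27° C incubation of treated soil held at 1/3 bar tension moisture. Nitrate was measured with an ion-selective electrode after extraction with ammonium sulfate solution and 10 min shaking.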

| SMILES | % NH4-N Remaining After 2 Weeks Incubation ([1]; 1 ppm) [%] | pest or weed control at 31 g/ha (rice) [%] | pest or weed control at 250 g/ha (rice) [%] | pest or weed control at 31 g/ha (barnyardgrass) [%] | pest or weed control at 250 g/ha (barnyardgrass) [%] | pest or weed control at 31 g/ha (sprangletop) [%] | pest or weed control at 250 g/ha (sprangletop) [%] | pest or weed control at 31 g/ha (yellow nutsedge) [%] | pest or weed control at 250 g/ha (yellow nutsedge) [%] | % NH4-N Remaining After 2 Weeks Incubation ([1]; 0.01 ppm) [%] | % NH4-N Remaining After 2 Weeks Incubation ([1]; 0.1 ppm) [%] | % NH4-N Remaining After 2 Weeks Incubation ([1]; 10 ppm) [%] | pest or weed control at 500 g/ha (rice) [%] | pest or weed control at 500 g/ha (barnyardgrass) [%] | pest or weed control at 500 g/ha (sprangletop) [%] | pest or weed control at 500 g/ha (yellow nutsedge) [%] | further results |
| --- | --- | --- | --- | --- | --- | --- | --- | --- | --- | --- | --- | --- | --- | --- | --- | --- | --- |
| Cc1cc(C)n2nc(S(=O)(=O)Nc3ccccc3S(=O)(=O)N(C)C)nc2n1 [Compound 15] | 54 |  |  |  |  |  |  |  |  |  |  |  |  |  |  |  | pest or weed control at 4000 g/ha (rice; 4.0 Kg/Ha): 35%; pest or weed control at 4000 g/ha (barnyardgrass; 4.0 Kg/Ha): 25%; pest or weed control at 4000 g/ha (sprangletop; 4.0 Kg/Ha): 0%; pest or weed control at 4000 g/ha (yellow nutsedge; 4.0 Kg/Ha): 70%; % NH4-N Remaining After 2 Weeks Incubation ([1]; 0.06 ppm): 1%; % NH4-N Remaining After 2 Weeks Incubation ([1]; 0.125 ppm): 0%; % NH4-N Remaining After 2 Weeks Incubation ([1]; 0.25 ppm): 23%; % NH4-N Remaining After 2 Weeks Incubation ([1]; 0.5 ppm): 42% |
| Cc1cc(C)n2nc(S(=O)(=O)Nc3c(Br)cccc3Br)nc2n1 [Compound 38] | 84 | 0 | 97 | 80 | 99 | 0 | 85 | 95 | 97 | 46 | 68 | 94 |  |  |  |  |  |
| CSc1ccccc1NS(=O)(=O)c1nc2nc(C)cc(C)n2n1 [Compound 9] | 59 |  | 0 |  | 93 |  | 80 |  | 30 | 0 | 14 | 88 |  |  |  |  | pest or weed control at 1000 g/ha (rice; 1.0 Kg/Ha): 25%; pest or weed control at 1000 g/ha (barnyardgrass; 1.0 Kg/Ha): 99%; pest or weed control at 1000 g/ha (sprangletop; 1.0 Kg/Ha): 97%; pest or weed control at 1000 g/ha (yellow nutsedge; 1.0 Kg/Ha): 85% |
| Cc1cc(C)n2nc(S(=O)(=O)Nc3ccccc3C)nc2n1 [Compound 2] | 39 |  |  |  |  |  |  |  |  | 0 | 0 | 78 |  |  |  |  | pest or weed control at 2000 g/ha (rice; 2.0 Kg/Ha): 97%; pest or weed control at 2000 g/ha (barnyardgrass; 2.0 Kg/Ha): 97%; pest or weed control at 2000 g/ha (sprangletop; 2.0 Kg/Ha): 99%; pest or weed control at 2000 g/ha (yellow nutsedge; 2.0 Kg/Ha): 93% |
| Cc1cc(C)n2nc(S(=O)(=O)Nc3c(C)cccc3[N+](=O)[O-])nc2n1 [Compound 49] | 90 |  |  |  |  |  |  |  |  | 42 | 77 | 99 | 97 | 97 | 97 | 99 | pest or weed control at 16 g/ha (rice; 0.016 Kg/Ha): 0%; pest or weed control at 16 g/ha (barnyardgrass; 0.016 Kg/Ha): 50%; pest or weed control at 16 g/ha (sprangletop; 0.016 Kg/Ha): 0%; pest or weed control at 16 g/ha (yellow nutsedge; 0.016 Kg/Ha): 95% |
| Cc1cc(C)n2nc(S(=O)(=O)Nc3c(Cl)cccc3I)nc2n1 [Compound 53] | 85 | 0 |  | 80 |  | 10 |  | 95 |  | 47 | 71 | 93 | 99 | 99 | 97 | 99 |  |
